Measurements published in the NIST ThermoML archive (doi:10.1016/j.tca.2013.10.035).
± gives the expanded uncertainty stated by the source.

Experiments:
[1] = Molar enthalpy of transition or fusion; conditions: DSC
[2] = DTA

| SMILES | Molar enthalpy of transition or fusion ([1]; Crystal) [kcal/mol] | Normal melting temperature ([2]; Crystal) [°C] | Glass transition temperature [2] [°C] | Molar enthalpy of transition or fusion ([1]; Crystal 1) [kcal/mol] | Normal melting temperature ([2]; Crystal 1) [°C] | Molar enthalpy of transition or fusion ([1]; Metastable crystal) [kcal/mol] | Normal melting temperature ([2]; Metastable crystal) [°C] |
| --- | --- | --- | --- | --- | --- | --- | --- |
| COc1ccc2cc([C@H](C)C(=O)O)ccc2c1 [(S)-(+)-naproxen] | 6.93 ± 0.191 | 153.6 ± 0.5 |  |  |  |  |  |
| CC(=O)Nc1ccc(O)cc1 [N-acetyl-p-aminophenol] |  |  | 21.2 ± 0.5 | 6.21 ± 0.191 | 169.2 ± 0.5 | 5.95 ± 0.167 | 156.7 ± 0.5 |

More lines, now with the values ahead:

| Molar enthalpy of transition or fusion ([1]; Crystal) [kcal/mol] | Normal melting temperature ([2]; Crystal) [°C] | Glass transition temperature [2] [°C] | Molar enthalpy of transition or fusion ([1]; Crystal 1) [kcal/mol] | Normal melting temperature ([2]; Crystal 1) [°C] | Molar enthalpy of transition or fusion ([1]; Metastable crystal) [kcal/mol] | Normal melting temperature ([2]; Metastable crystal) [°C] | SMILES |
| --- | --- | --- | --- | --- | --- | --- | --- |
| 8.99 ± 0.239 | 152.8 ± 0.5 |  |  |  |  |  | CC(C)NCC(O)COc1ccc(CC(N)=O)cc1 (stereo not given) [2-(4-(2-hydroxy-3-(isopropylamino)propoxy)phenyl)acetamide] |
| 9.23 ± 0.263 | 95.4 ± 0.5 | 3.2 ± 0.5 |  |  |  |  | COc1ccccc1OCC(O)COC(N)=O (stereo not given) [2-hydroxy-3-(2-methoxyphenoxy)propyl carbamate] |
|  |  | -34.5 ± 0.5 | 7.12 ± 0.215 | 70.0 ± 0.5 |  |  | Cc1ccccc1OCC(O)CO (stereo not given) [3-(2-methylphenoxy)-1,2-propanediol] |
